According to patent US5310745A, “Antiviral compounds” (priority 1992, dated 1994):

Tests used:
Format in all cases: cell-based
visna virus = assay: Plaque reduction assay, inhibition of visna virus in vitro; set-up: key to Antiviral Activity: A: active compound; I: inactive compound; details: for % Plaque Reduction / inhibition at 1 µM / inhibition at 10 µM / inhibition at 100 µM / inhibition at 1000 µM: Table 2; for inhibition at 1 µM / inhibition at 10 µM / inhibition at 100 µM / inhibition at 1000 µM: Visna-maedi virus; for inhibition at 1 µM: 0.001 mM; for Antiviral Activity: Table 1
Excerpt: Visna virus, a lentivirus genetically very similar to the AIDS virus, is pathogenic for sheep and goats. See Sonigo et al., Cell 42, 369-382 (1985); Haase, Nature 322, 130-136 (1986). Inhibition of visna virus replication in vitro as a useful model for human immunodeficiency virus (HIV) and its inhibition by test compounds has been described by Franket al., Antimicrobial Agents and Chemotherapy 31 (9), 1369-1374 (1987). The N-butyl derivative of 1,5-dideoxy-1,5-imino-D-glucitol, also referred to as n-butyl-deoxynojirimycin (N-Bu-DNJ), was used as a control standard for comparison with various novel compounds of this invention.
Various compounds as prepared above were tested for inhibition of visna virus in vitro in a plaque reduction assay as follows:
(§1) Sheep choroid plexus (SCP) cells were obtained from American Type Culture Collection (ATCC) catalogue number CRL 1700 and were routinely passaged in vitro in Dulbecco's Modified Eagles (DME) medium supplemented with 20% fetal bovine serum (FBS). SCP cells were passaged once per week at a 1:2 or 1:3 split ratio. Visna was titrated by plaque assay in six-well plates. Virus pools were stored at -70° C.
(§2) SCP cells were cultured in 6-well plates to confluence. Wells were washed two times with serum free Minimal Essential Medium (MEM) to remove FBS. 0.2 ml of virus was added per well in MEM supplemented with 4 mM glutamine and gentamycin. After 1 hour adsorption, the virus was aspirated from each well. The appropriate concentration of each compound in 5 ml of Medium 199 (M-199) supplemented With 2% lamb serum, 4 mM glutamine, 0.5% agarose and gentamycin was added to each well. Cultures were incubated at 37° C. in a humidified 5% CO2 incubator for 3-4 weeks. To terminate the test: cultures were fixed in 10% formalin, the agar removed, the monolayers stained with 1% crystal violet and plaques counted. Each compound concentration was run in triplicate. […] 0 is no toxicity observed while 4 is total lysing of the cell monolayer.

[1] = test system: Sheep choroid plexus (SCP) cells; assay: Toxicity of compounds in control wells without virus, graded morphologically
Procedure: as §1, §2

[2] = test system: Sheep choroid plexus (SCP) cells; assay: as above; set-up: key: 0: no toxicity observed; 4: total lysing of the cell monolayer; details: graded 0 to 4, Table 2
Procedure: as §1, §2

[3] = 0.01 mM, graded 0 to 4, Table 2
[4] = 0.03125 mM, 0 to 4 scale, Table 1

Row | Compound | % Plaque Reduction (visna virus; 1.0 mM) | inhibition at 1 µM (visna virus) | inhibition at 10 µM (visna virus; 0.01 mM) | inhibition at 100 µM (visna virus; 0.1 mM) | Toxicity ([1]; 0.1 mM, graded 0 to 4, Table 2) | Toxicity ([2]; 0.001 mM) | Toxicity ([2]; 0.01 mM) | Toxicity ([2]; 1.0 mM) | inhibition at 1000 µM (visna virus; 1.0 mM) | Toxicity ([2]; 0.1 mM) | also measured
1 | CC(=O)OC[C@@H]1[C@@H](OC(C)=O)[C@H](OC(C)=O)[C@@H](OC(C)=O)CN1C(=O)CCOc1ccc(Cl)cc1 [Example 51, 1,5-Dideoxy-1,5-[[3-(4-chlorophenoxy)-1-oxopropyl]-imino]-D-glucitol, tetraacetate] | Toxic | 12% | 57% | 91% | 1 | 0 | 0 | 4 | – | – | –
2 | CCCCCCCCCCc1ccc(C(=O)N2C[C@H](OC(C)=O)[C@@H](OC(C)=O)[C@H](OC(C)=O)[C@H]2COC(C)=O)cc1 [Example 47, 1,5-[(4-Decylbenzoyl)imino]-1,5-dideoxy-D-glucitol, tetraacetate] | Toxic | 9% | 64% | 86% | 1 | 0 | 0 | 4 | – | – | –
3 | CC(C)C(=O)OC[C@@H]1[C@@H](OC(=O)C(C)C)[C@H](OC(=O)C(C)C)[C@@H](OC(=O)C(C)C)CN1C(=O)Cc1ccccc1 [Example 39, 1,5-(Phenylacetylimino)-1,5-dideoxy-D-glucitol, tetraisobutyrate] | – | – | 19% | 56% | 1 | – | 0 | – | 95% | – | Toxicity ([1]; 1.0 mM, graded 0 to 4, Table 2): 3
4 | CCCCN1C[C@H](OC(=O)CCC)[C@@H](OC(=O)CCC)[C@H](O)[C@H]1CO [Example 38, 1,5-(Butylimino)-1,5-dideoxy-D-glucitol, 2,3-dibutyrate] | Toxic | 47% | 54% | 80% | 2 | 0 | 0 | 4 | – | – | –
5 | CC(=O)OC[C@@H]1[C@@H](OC(C)=O)[C@H](OC(C)=O)[C@@H](OC(C)=O)CN1C(=O)c1ccc(-c2ccccc2)cc1 [Example 53, 1,5-[([1,1'-biphenyl]-4-ylcarbonyl)imino]-1,5-dideoxy-D-glucitol, tetraacetate] | Toxic | 28% | 81% | 100% | 2 | 0 | 0 | 4 | – | – | –
6 | CCCCN1C[C@H](OC(=O)CCC(C)C)[C@@H](OC(=O)CCC(C)C)[C@H](OC(=O)CCC(C)C)[C@H]1COC(=O)CCC(C)C [Example 49, 1,5-(Butylimino)-1,5-dideoxy-D-glucitol, tetra(4-methylpentanoate)] | – | – | – | – | – | – | – | 0 | 98% | – | –
7 | CCC(CC)CN1C[C@H](OC(C)=O)[C@@H](OC(C)=O)[C@H](OC(C)=O)[C@H]1COC(C)=O [Example 27, 1,5-[(2-Ethylbutyl)imino]-1,5-dideoxy-D-glucitol, tetraacetate] | – | – | – | 12% | – | – | – | – | 65% | 0 | Toxicity ([1]; 1.0 mM, graded 0 to 4, Table 2): 3
8 | CCCCN1C[C@H](OC(C)=O)[C@@H](OC(C)=O)[C@H](O)[C@H]1CO [Example 28, 1,5-(Butylimino)-1,5-dideoxy-D-glucitol, 2,3-diacetate] | – | – | – | 44% | 2 | – | – | 4 | 87% | – | –
9 | CC(=O)OC[C@@H]1[C@@H](OC(C)=O)[C@H](OC(C)=O)[C@@H](OC(C)=O)CN1C(=O)Cc1ccc(Cl)cc1 [Example 40, 1,5-[(4-Chlorophenyl)acetylimino]-1,5-dideoxy-D-glucitol, tetraacetate] | – | 29% | 46% | – | 3 | 0 | – | 4 | – | – | Toxicity [1, 3]: 1
10 | CCCC(=O)OC[C@@H]1[C@@H](OC(=O)CCC)[C@H](OC(=O)CCC)[C@@H](OC(=O)CCC)CN1CCCCCCCC(F)(F)F [Example 62, 1,5-(8,8,8-Trifluorooctylimino)-1,5-dideoxy-D-glucitol, tetrabutyrate] | – | – | 49% | 91% | 1 | – | – | – | 97% | – | Toxicity [1, 3]: 1; Toxicity ([1]; 1.0 mM, graded 0 to 4, Table 2): 2
11 | CCCC(C)CN1C[C@H](OC(C)=O)[C@@H](OC(C)=O)[C@H](OC(C)=O)[C@H]1COC(C)=O (stereo partly drawn) [Example 33, 1,5-[(2-Methylpentyl)imino]-1,5-dideoxy-D-glucitol, tetraacetate] | 63% | – | – | – | – | – | 0 | – | – | 0 | % Plaque Reduction (visna virus; 0.01 mM): 21%; % Plaque Reduction (visna virus; 0.1 mM): 28%; Toxicity ([1]; 1.0 mM, graded 0 to 4, Table 2): 3
12 | CCCCN1C[C@H](OC(=O)C(C)(C)C)[C@@H](OC(=O)C(C)(C)C)[C@H](OC(=O)C(C)(C)C)[C@H]1COC(=O)C(C)(C)C [Example 50A] | Toxic | – | 20% | 49% | 1 | – | 0 | 4 | – | – | –
13 | CCCC(=O)OC[C@@H]1[C@@H](OC(=O)CCC)[C@H](OC(=O)CCC)[C@@H](OC(=O)CCC)CN1C(=O)Cc1cccs1 [Example 55, 1,5-Dideoxy-1,5-[[1-oxo-2-(2-thienyl)ethyl]imino]-D-glucitol, tetrabutanoate] | Toxic | 11% | 37% | 95% | – | 0 | 0 | 4 | – | 0 | –
14 | CCCC(=O)OC[C@@H]1[C@@H](OC(=O)CCC)[C@H](OC(=O)CCC)[C@@H](OC(=O)CCC)CN1C(=O)c1ccccc1OC(C)=O [Example 52, 1,5-[[2-(Acetyloxy)benzoyl]imino]-1,5-dideoxy-D-glucitol, tetrabutanoate] | Toxic | 16% | 37% | 98% | – | 0 | 0 | 4 | – | 0 | –
15 | CCCCN1C[C@H](OC(=O)CCC2CCCC2)[C@@H](OC(=O)CCC2CCCC2)[C@H](OC(=O)CCC2CCCC2)[C@H]1COC(=O)CCC1CCCC1 [Example 56, 1,5-(Butylimino)-1,5-dideoxy-D-glucitol, tetra(3-cyclopentylpropanoate)] | – | – | 13% | 16% | – | – | 0 | 0 | 56% | 0 | –
16 | CCCCCCN1C[C@H](OC(C)=O)[C@@H](OC(C)=O)[C@H](OC(C)=O)[C@H]1COC(C)=O [Example 12, 1,5-(Hexylimino)-1,5-dideoxy-D-glucitol, tetraacetate] | – | – | – | – | – | – | – | – | – | – | Antiviral Activity (visna virus; 0.0075 mM): A; Antiviral Activity (visna virus; 0.0156 mM): A; Antiviral Activity (visna virus; 0.03125 mM): A; Toxicity ([1]; 0.0075 mM, 0 to 4 scale, Table 1): 1; Toxicity ([1]; 0.0156 mM, 0 to 4 scale, Table 1): 1; Toxicity [1, 4]: 2
17 | CC(=O)OC[C@@H]1[C@@H](OC(C)=O)[C@H](OC(C)=O)[C@@H](OC(C)=O)CN1C [Example 10, 1,5-(Methylimino)-1,5-dideoxy-D-glucitol, tetraacetate] | – | – | – | – | – | – | – | – | – | – | Antiviral Activity (visna virus; 0.03125 mM): A; Antiviral Activity (visna virus; 0.0625 mM): A; Antiviral Activity (visna virus; 0.125 mM): A; Toxicity [1, 4]: 1; Toxicity ([1]; 0.0625 mM, 0 to 4 scale, Table 1): 2; Toxicity ([1]; 0.125 mM, 0 to 4 scale, Table 1): 3
18 | CC(=O)OC[C@@H]1[C@@H](OC(C)=O)[C@H](OC(C)=O)[C@@H](OC(C)=O)CN1C(=O)C=Cc1ccccc1 [Example 36, 1,5-(Cinnamoylimino)-1,5-dideoxy-D-glucitol, tetraacetate] | Toxic | 42% | 76% | – | – | 0 | 0 | 4 | – | 4 | % Plaque Reduction (visna virus; 0.1 mM): Toxic
19 | CC(=O)OC[C@@H]1[C@@H](OC(C)=O)[C@H](OC(C)=O)[C@@H](OC(C)=O)CN1C(=O)COc1ccccc1 [Example 25, 1,5-[(Phenoxymethyl)carbonylimino]-1,5-dideoxy-D-glucitol, tetraacetate] | – | – | – | – | – | – | – | – | – | – | Antiviral Activity (visna virus; 0.1 mM): A; Antiviral Activity (visna virus; 1.0 mM): A; Toxicity ([1]; 0.1 mM, 0 to 4 scale, Table 1): 1; Toxicity ([1]; 1.0 mM, 0 to 4 scale, Table 1): 2
